Reference: US9657057B2, “Dipeptide and tripeptide epoxy ketone protease inhibitors” (Onyx Therapeutics, Inc., priority 2013, dated 2017)
≈ marks a conversion by molar mass, not a printed value.

Experiments:
[1] = target: T1, LMP7 (Homo sapiens, UniProt P20618+P28062); assay: ProCISE proteasome subunit assay, LMP7; format: biochemical; settings: MOLT4 lysate Hu 1 h
T1 construct: endogenous in cells; host or cells: MOLT-4
How it was run: (§1)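 MOLT-4 cell lysate was incubated with compound for 1 h at 25° C, then a subunit-binding probe was applied; probe-bound subunits were pulled down on streptavidin beads after guanidine denaturation and detected with subunit-specific antibodies by HRP chemiluminescence. Signal was normalized to protein and expressed as percent of DMSO control to fit IC50.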

[2] = target: i20S (20S immunoproteasome) (Homo sapiens, UniProt P20618+P28062); assay: 20S proteasome assay, chymotrypsin-like activity (LLVY), i20S; format: biochemical; settings: LLVY i20S Hu 1 h CONT: IC50 (nM), succinyl-Leu-Leu-Val-Tyr-AMC
Description: (§2) Assay buffer consisted of TE buffer [20 mmol/L Tris (pH 8.0), 0.5 mmol/L EDTA] with (20S) or without (cell lysate) 0.03% SDS. Reactions were initiated by enzyme or lysate addition and monitored for AMC product formation at 27jC with a plate-based spectofluorometer (Tecan).

[3] = target: T2, β5 (Homo sapiens, UniProt P20618+P28074); assay: ProCISE proteasome subunit assay, β5; format: biochemical; settings: MOLT4 lysate Hu 1 h
T2 construct: endogenous in cells; host or cells: MOLT-4
How it was run: as §1

[4] = target: c20S (constitutive 20S proteasome) (Homo sapiens, UniProt P20618+P28074); assay: 20S proteasome assay, chymotrypsin-like activity (LLVY), c20S; format: biochemical; settings: LLVY c20S Hu 1 h CONT: IC50 (nM), succinyl-Leu-Leu-Val-Tyr-AMC
Description: as §2

[5] = Solubility pH 7; format: physicochemical; settings: pH 7, aqueous buffer
[6] = target: T3, LMP2 (Homo sapiens, UniProt P28065+P40306); assay: ProCISE proteasome subunit assay, LMP2; format: biochemical; settings: MOLT4 lysate Hu 1 h
T3 construct: endogenous in cells; host or cells: MOLT-4
Description: This assay was used to assess the inhibitory activity against each of LMP2, LMP7, MECL1, β1, β2, and β5. Briefly, test compounds were serially diluted in DMSO at 100× concentration, then diluted to 10× in aqueous hypotonic lysis buffer. Lysate from the human acute lymphoblastic leukemia cell line, MOLT-4, was treated for 1 hour at 25° C. with compound at a final 1× concentration. […] Following this, lysate was denatured in guanidine hydrochloride, and subunits bound to probe were isolated with streptavidin-conjugated sepharose beads. Individual subunits were probed with subunit-specific primary antibodies, followed by HRP-conjugated secondary antibodies. A chemiluminescent substrate was used to generate signal associated with HRP binding, which was detected on a plate reader. Luminescent signal was normalized to protein content, then, percent activity calculated relative to DMSO-treated controls to generate IC50 curves.

IC50 [1]	IC50 [2]	IC50 [3]	IC50 [4]	solubility [5]	IC50 [6]	IC50 ([6]; ProCISE LMP2 MOLT4 lysate Hu 1 h CONT: IC50 (nM))	Structure (SMILES)
67.1 nM	49.2 nM	595 nM	521 nM	6160 µg/mL (≈ 10.4 mM)	–	–	C[C@@H](NC(=O)CC(C)(C)O)C(=O)N[C@@H](Cc1ccc(S(C)(=O)=O)cc1)C(=O)N[C@@H](CC1CCCC1)C(=O)[C@@]1(C)CO1 [Compound C-2050, N—((R)-1-(((S)-1-(((S)-3-cyclopentyl-1-((R)-2-methyloxiran-2-yl)-1-oxopropan-2-yl)amino)-3-(4-(methylsulfonyl)phenyl)-1-oxopropan-2-yl)amino)-1-oxopropan-2-yl)-3-hydroxy-3-methylbutanamide]
54.3 nM	34 nM	883 nM	459 nM	241 µg/mL (≈ 0.43 mM)	–	–	CC[C@](C)(O)CC(=O)N[C@H](C)C(=O)N[C@@H](Cc1ccc(OC)cc1)C(=O)N[C@@H](CC1CCCC1)C(=O)[C@@]1(C)CO1 [Compound C-2051, (S)—N—((R)-1-(((S)-1-(((S)-3-cyclopentyl-1-((R)-2-methyloxiran-2-yl)-1-oxopropan-2-yl)amino)-3-(4-methoxyphenyl)-1-oxopropan-2-yl)amino)-1-oxopropan-2-yl)-3-hydroxy-3-methylpentanamide]
38.5 nM	10.8 nM	560 nM	316 nM	160 µg/mL (≈ 0.286 mM)	–	–	CC[C@@](C)(O)CC(=O)N[C@H](C)C(=O)N[C@@H](Cc1ccc(OC)cc1)C(=O)N[C@@H](CC1CCCC1)C(=O)[C@@]1(C)CO1 [Compound C-2052, (R)—N—((R)-1-(((S)-1-(((S)-3-cyclopentyl-1-((R)-2-methyloxiran-2-yl)-1-oxopropan-2-yl)amino)-3-(4-methoxyphenyl)-1-oxopropan-2-yl)amino)-1-oxopropan-2-yl)-3-hydroxy-3-methylpentanamide]
75 nM	55 nM	670 nM	723 nM	122 µg/mL (≈ 0.204 mM)	–	–	COc1ccc(C[C@H](NC(=O)[C@@H](C)NC(=O)CC(C)(O)C(F)(F)F)C(=O)N[C@@H](CC2CCCC2)C(=O)[C@@]2(C)CO2)cc1 (stereo partly drawn) [Compound C-2054, N—((R)-1-(((S)-1-(((S)-3-cyclopentyl-1-((R)-2-methyloxiran-2-yl)-1-oxopropan-2-yl)amino)-3-(4-methoxyphenyl)-1-oxopropan-2-yl)amino)-1-oxopropan-2-yl)-4,4,4-trifluoro-3-hydroxy-3-methylbutanamide]
52.2 nM	28.9 nM	291 nM	191 nM	3730 µg/mL (≈ 6.73 mM)	–	–	COc1ccc(C[C@H](NC(=O)[C@@H](C)NC(=O)CC(C)(C)O)C(=O)N[C@@H](Cc2ccccc2)C(=O)[C@@]2(C)CO2)cc1 [Compound C-2056, 3-hydroxy-N—((R)-1-(((S)-3-(4-methoxyphenyl)-1-(((S)-1-((R)-2-methyloxiran-2-yl)-1-oxo-3-phenylpropan-2-yl)amino)-1-oxopropan-2-yl)amino)-1-oxopropan-2-yl)-3-methylbutanamide]
71 nM	15.9 nM	534 nM	246 nM	2450 µg/mL (≈ 4.36 mM)	–	–	COc1ccc(C[C@H](NC(=O)[C@@H](C)NC(=O)CC(C)(C)O)C(=O)N[C@@H](CC2CCCC2)C(=O)[C@@]2(C)CO2)cc1O [Compound C-2059, N—((R)-1-(((S)-1-(((S)-3-cyclopentyl-1-((R)-2-methyloxiran-2-yl)-1-oxopropan-2-yl)amino)-3-(3-hydroxy-4-methoxyphenyl)-1-oxopropan-2-yl)amino)-1-oxopropan-2-yl)-3-hydroxy-3-methylbutanamide]
60.4 nM	17.3 nM	368 nM	201 nM	3010 µg/mL (≈ 5.39 mM)	–	–	COc1ccc(C[C@H](NC(=O)[C@@H](C)NC(=O)CC(C)(C)O)C(=O)N[C@@H](CC2=CCCC2)C(=O)[C@@]2(C)CO2)cc1O [Compound C-2060, N—((R)-1-(((S)-1-(((S)-3-(cyclopent-1-en-1-yl)-1-((R)-2-methyloxiran-2-yl)-1-oxopropan-2-yl)amino)-3-(3-hydroxy-4-methoxyphenyl)-1-oxopropan-2-yl)amino)-1-oxopropan-2-yl)-3-hydroxy-3-methylbutanamide]
4770 nM	–	5590 nM	–	–	526 nM	–	COc1ccc(C[C@H](NC(=O)c2ccnc(N3CCOCC3)n2)C(=O)N[C@@H](Cc2ccccc2)C(=O)[C@@]2(C)CO2)cc1 [Compound C-3001]
1160 nM	1610 nM	4300 nM	4080 nM	1380 µg/mL (≈ 2.72 mM)	–	–	COc1ccc(C[C@H](NC(=O)[C@@]2(C)CCC(=O)N2)C(=O)N[C@@H](Cc2ccccc2)C(=O)[C@@]2(C)CO2)cc1 [Compound C-3010, (R)—N—((S)-3-(4-methoxyphenyl)-1-(((S)-1-((R)-2-methyloxiran-2-yl)-1-oxo-3-phenylpropan-2-yl)amino)-1-oxopropan-2-yl)-2-methyl-5-oxopyrrolidine-2-carboxamide]
2750 nM	4790 nM	6040 nM	14500 nM	4410 µg/mL (≈ 8.93 mM)	–	–	COc1ccc(C[C@H](NC(=O)[C@H]2CCC(=O)N2)C(=O)N[C@@H](Cc2ccccc2)C(=O)[C@@]2(C)CO2)cc1 [Compound C-3012, (R)—N—((S)-3-(4-methoxyphenyl)-1-(((S)-1-((R)-2-methyloxiran-2-yl)-1-oxo-3-phenylpropan-2-yl)amino)-1-oxopropan-2-yl)-5-oxopyrrolidine-2-carboxamide]
3480 nM	4050 nM	14200 nM	15900 nM	1910 µg/mL (≈ 3.87 mM)	–	–	COc1ccc(C[C@H](NC(=O)[C@@H]2CCC(=O)N2)C(=O)N[C@@H](Cc2ccccc2)C(=O)[C@@]2(C)CO2)cc1 [Compound C-3013, (S)—N—((S)-3-(4-methoxyphenyl)-1-(((S)-1-((R)-2-methyloxiran-2-yl)-1-oxo-3-phenylpropan-2-yl)amino)-1-oxopropan-2-yl)-5-oxopyrrolidine-2-carboxamide]
–	–	–	–	69.4 µg/mL (≈ 0.14 mM)	34.9 nM	–	COc1ccc(C[C@H](NC(=O)c2cccc(=O)[nH]2)C(=O)N[C@@H](CC2CCCC2)C(=O)[C@@]2(C)CO2)cc1 [Compound C-3014, N—((S)-1-(((S)-3-Cyclopentyl-1-((R)-2-methyloxiran-2-yl)-1-oxopropan-2-yl)amino)-3-(4-methoxyphenyl)-1-oxopropan-2-yl)-6-oxo-1,6-dihydropyridine-2-carboxamide]
–	–	–	–	143 µg/mL (≈ 0.291 mM)	37.6 nM	–	COc1ccc(C[C@H](NC(=O)c2cccc(=O)[nH]2)C(=O)N[C@@H](CC2=CCCC2)C(=O)[C@@]2(C)CO2)cc1 [Compound C-3015, N—((S)-1-(((S)-3-(Cyclopent-1-en-1-yl)-1-((R)-2-methyloxiran-2-yl)-1-oxopropan-2-yl)amino)-3-(4-methoxyphenyl)-1-oxopropan-2-yl)-6-oxo-1,6-dihydropyridine-2-carboxamide]
–	–	–	–	7520 µg/mL (≈ 18.9 mM)	55 nM	–	C[C@H](NC(=O)c1cccc(=O)[nH]1)C(=O)N[C@@H](Cc1ccccc1)C(=O)[C@@]1(C)CO1 [Compound C-3016, N—((S)-1-(((S)-1-((R)-2-Methyloxiran-2-yl)-1-oxo-3-phenylpropan-2-yl)amino)-1-oxopropan-2-yl)-6-oxo-1,6-dihydropyridine-2-carboxamide]
–	–	–	–	6640 µg/mL (≈ 16.1 mM)	–	33 nM	C[C@]1(C(=O)[C@H](Cc2ccccc2)NC(=O)[C@H](CO)NC(=O)c2cccc(=O)[nH]2)CO1 [Compound C-3017, N—((S)-3-Hydroxy-1-(((S)-1-((R)-2-methyloxiran-2-yl)-1-oxo-3-phenylpropan-2-yl)amino)-1-oxopropan-2-yl)-6-oxo-1,6-dihydropyridine-2-carboxamide]
–	–	–	–	516 µg/mL (≈ 1.32 mM)	24.9 nM	–	C[C@H](NC(=O)c1cccc(=O)[nH]1)C(=O)N[C@@H](CC1CCCC1)C(=O)[C@@]1(C)CO1 [Compound C-3018, N—((S)-1-(((S)-3-Cyclopentyl-1-((R)-2-methyloxiran-2-yl)-1-oxopropan-2-yl)amino)-1-oxopropan-2-yl)-6-oxo-1,6-dihydropyridine-2-carboxamide]
–	–	–	–	639 µg/mL (≈ 1.58 mM)	16.8 nM	–	C[C@]1(C(=O)[C@H](CC2CCCC2)NC(=O)[C@H](CO)NC(=O)c2cccc(=O)[nH]2)CO1 [Compound C-3019, N—((S)-1-(((S)-3-Cyclopentyl-1-((R)-2-methyloxiran-2-yl)-1-oxopropan-2-yl)amino)-3-hydroxy-1-oxopropan-2-yl)-6-oxo-1,6-dihydropyridine-2-carboxamide]
